Columns and labels:
[1] = molecular target: Serine/threonine-protein kinase PLK1 (Homo sapiens, UniProt P53350); assay: Inhibition of PLK1 expressed in baculovirus-infected Trichoplusia-ni cells by scintillation proximity assay
HCT-116 = assay: Antiproliferative activity against human HCT116 cells after 3 days by methylene blue stain technique; type: functional, cell-based; settings: HCT-116, 72 h
HN5 = assay: Antiproliferative activity against human HN5 cells after 3 days by methylene blue stain technique; type: functional, cell-based; settings: HN5, 72 h
PC-3 = assay: Antiproliferative activity against human PC3 cells after 3 days by methylene blue stain technique; type: functional, cell-based; settings: PC-3, 72 h
[2] = Volume of distribution at steady state in mouse at 6.7 mg/kg, iv; type: ADME, organism-based; parameters: dose 6.7 mg/kg, route intravenous; settings: in vivo, read-out: Vdss
[3] = Clearance in mouse at 6.7 mg/kg, iv; type: ADME, organism-based; parameters: dose 6.7 mg/kg, route intravenous; settings: in vivo
RKO = assay: Antiproliferative activity against human RKO cells after 3 days by methylene blue stain technique; type: functional, cell-based; settings: 72 h
NCI-N87 = assay: Antiproliferative activity against human NCI-N87 cells after 3 days by methylene blue stain technique; type: functional, cell-based; settings: NCI-N87, 72 h
A549 = assay: Antiproliferative activity against human A549 cells after 3 days by methylene blue stain technique; type: functional, cell-based; settings: A549, 72 h
[4] = molecular target: Epidermal growth factor receptor (Homo sapiens, UniProt P00533); assay: Inhibition of EGFR
Sequence of Epidermal growth factor receptor (P00533 whole entry): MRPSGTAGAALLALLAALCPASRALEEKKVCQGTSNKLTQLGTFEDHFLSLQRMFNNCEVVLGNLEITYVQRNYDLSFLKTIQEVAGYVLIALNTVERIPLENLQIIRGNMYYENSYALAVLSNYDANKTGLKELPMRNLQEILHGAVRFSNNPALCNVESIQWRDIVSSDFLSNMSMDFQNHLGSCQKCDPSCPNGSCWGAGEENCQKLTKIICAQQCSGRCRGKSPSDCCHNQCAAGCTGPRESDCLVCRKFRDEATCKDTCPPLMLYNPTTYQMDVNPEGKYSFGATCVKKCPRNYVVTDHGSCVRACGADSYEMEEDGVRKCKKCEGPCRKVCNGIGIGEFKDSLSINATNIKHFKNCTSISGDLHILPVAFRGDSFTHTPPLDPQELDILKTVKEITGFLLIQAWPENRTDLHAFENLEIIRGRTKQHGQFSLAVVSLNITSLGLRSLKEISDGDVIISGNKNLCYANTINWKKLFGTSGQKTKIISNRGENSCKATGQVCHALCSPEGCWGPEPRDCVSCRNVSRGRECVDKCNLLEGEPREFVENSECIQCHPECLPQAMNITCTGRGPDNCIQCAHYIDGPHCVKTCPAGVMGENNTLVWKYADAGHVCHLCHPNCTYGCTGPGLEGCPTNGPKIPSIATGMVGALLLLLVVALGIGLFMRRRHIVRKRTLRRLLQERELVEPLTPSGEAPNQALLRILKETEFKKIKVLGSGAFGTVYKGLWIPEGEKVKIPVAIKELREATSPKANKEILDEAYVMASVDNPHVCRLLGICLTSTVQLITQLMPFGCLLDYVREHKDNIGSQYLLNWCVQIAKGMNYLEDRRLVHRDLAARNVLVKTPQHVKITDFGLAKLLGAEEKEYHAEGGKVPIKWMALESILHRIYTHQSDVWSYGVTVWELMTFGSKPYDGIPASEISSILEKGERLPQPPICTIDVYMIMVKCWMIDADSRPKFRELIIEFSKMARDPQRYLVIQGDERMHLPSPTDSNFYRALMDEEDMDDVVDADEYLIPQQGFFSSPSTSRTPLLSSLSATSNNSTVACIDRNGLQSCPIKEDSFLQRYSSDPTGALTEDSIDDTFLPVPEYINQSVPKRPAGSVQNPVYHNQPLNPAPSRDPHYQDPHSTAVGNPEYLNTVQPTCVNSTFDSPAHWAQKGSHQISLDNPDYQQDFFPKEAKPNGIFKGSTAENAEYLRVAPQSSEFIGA

NCI-H460 = assay: Antiproliferative activity against human H460 cells after 3 days by methylene blue stain technique; type: functional, cell-based; settings: NCI-H460, 72 h
MCF7 = assay: Antiproliferative activity against human MCF7 cells after 3 days by methylene blue stain technique; type: functional, cell-based; settings: MCF7, 72 h
[5] = Inhibition of GSK3
[6] = molecular target: Vascular endothelial growth factor receptor 3 (Homo sapiens, UniProt P35916); assay: Inhibition of VEGFR3
Sequence of Vascular endothelial growth factor receptor 3 (P35916 whole entry): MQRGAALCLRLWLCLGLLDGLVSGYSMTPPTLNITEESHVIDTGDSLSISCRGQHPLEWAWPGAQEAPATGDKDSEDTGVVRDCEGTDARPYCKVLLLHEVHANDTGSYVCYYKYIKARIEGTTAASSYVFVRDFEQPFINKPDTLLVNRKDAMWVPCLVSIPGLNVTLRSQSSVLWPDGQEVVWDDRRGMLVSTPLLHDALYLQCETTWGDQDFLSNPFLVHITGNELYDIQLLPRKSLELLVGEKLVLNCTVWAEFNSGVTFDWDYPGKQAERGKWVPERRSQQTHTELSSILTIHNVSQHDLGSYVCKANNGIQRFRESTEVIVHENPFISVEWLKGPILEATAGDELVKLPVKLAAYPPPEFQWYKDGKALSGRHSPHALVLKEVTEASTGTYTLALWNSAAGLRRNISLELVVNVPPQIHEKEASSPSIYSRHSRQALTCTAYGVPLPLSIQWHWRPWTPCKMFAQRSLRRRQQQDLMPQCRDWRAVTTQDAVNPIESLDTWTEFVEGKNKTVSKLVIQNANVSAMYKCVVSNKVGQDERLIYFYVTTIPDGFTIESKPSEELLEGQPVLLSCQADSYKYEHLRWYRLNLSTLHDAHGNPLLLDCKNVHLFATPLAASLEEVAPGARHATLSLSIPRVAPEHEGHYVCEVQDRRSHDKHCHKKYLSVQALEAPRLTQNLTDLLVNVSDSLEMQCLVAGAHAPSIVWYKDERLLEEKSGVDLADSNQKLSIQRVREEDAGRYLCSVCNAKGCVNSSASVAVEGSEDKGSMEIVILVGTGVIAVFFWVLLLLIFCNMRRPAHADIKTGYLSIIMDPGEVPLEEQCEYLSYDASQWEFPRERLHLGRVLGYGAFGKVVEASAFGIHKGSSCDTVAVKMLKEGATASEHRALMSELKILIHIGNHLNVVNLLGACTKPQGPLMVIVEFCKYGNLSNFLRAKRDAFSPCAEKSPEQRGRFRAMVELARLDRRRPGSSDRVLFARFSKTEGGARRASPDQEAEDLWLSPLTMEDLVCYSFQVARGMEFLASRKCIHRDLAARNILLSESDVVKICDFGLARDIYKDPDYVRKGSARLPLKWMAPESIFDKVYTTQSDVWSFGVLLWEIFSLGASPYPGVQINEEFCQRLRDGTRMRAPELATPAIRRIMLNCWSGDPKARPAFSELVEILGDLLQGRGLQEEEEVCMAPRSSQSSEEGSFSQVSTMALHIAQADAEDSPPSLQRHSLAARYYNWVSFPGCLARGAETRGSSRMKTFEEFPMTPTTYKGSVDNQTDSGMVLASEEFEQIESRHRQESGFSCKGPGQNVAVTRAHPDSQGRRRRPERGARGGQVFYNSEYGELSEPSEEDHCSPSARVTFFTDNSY

[7] = molecular target: Mitogen-activated protein kinase 14 (Homo sapiens, UniProt Q16539); assay: Inhibition of p38alpha
Sequence of Mitogen-activated protein kinase 14 (Q16539 whole entry): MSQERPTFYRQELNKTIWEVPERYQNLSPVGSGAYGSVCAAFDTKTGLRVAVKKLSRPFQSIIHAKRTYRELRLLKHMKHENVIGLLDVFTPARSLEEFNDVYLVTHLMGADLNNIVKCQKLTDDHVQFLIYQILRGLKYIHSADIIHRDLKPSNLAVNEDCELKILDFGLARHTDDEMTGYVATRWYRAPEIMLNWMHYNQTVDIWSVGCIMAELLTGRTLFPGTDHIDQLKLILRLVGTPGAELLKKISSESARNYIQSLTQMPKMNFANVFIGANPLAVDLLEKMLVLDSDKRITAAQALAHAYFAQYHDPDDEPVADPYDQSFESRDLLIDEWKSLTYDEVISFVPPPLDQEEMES

[8] = molecular target: Proto-oncogene tyrosine-protein kinase Src (Homo sapiens, UniProt P12931); assay: Inhibition of Src
Sequence of Proto-oncogene tyrosine-protein kinase Src (P12931 2-536 limits assumed): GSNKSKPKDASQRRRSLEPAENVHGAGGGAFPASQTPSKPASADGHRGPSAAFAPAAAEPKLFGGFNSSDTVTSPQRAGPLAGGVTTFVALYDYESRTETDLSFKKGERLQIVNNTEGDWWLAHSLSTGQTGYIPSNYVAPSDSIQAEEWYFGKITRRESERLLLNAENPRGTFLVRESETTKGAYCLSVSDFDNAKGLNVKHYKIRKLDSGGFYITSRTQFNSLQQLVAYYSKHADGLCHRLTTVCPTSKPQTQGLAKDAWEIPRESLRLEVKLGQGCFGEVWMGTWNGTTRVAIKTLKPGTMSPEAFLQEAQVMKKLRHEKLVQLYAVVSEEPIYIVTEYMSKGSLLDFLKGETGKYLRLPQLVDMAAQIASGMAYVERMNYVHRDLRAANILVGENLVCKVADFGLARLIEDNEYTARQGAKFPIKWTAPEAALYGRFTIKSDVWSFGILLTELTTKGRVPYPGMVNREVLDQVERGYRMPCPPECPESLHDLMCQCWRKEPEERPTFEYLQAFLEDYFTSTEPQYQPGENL

[9] = Oral bioavailability in mouse at 10 mg/kg; type: ADME, organism-based; settings: in vivo
[10] = AUC in mouse at 10 mg/kg, po; type: ADME, organism-based; parameters: dose 10 mg/kg, route oral; settings: plasma

Sequence of Serine/threonine-protein kinase PLK1 (P53350 whole entry): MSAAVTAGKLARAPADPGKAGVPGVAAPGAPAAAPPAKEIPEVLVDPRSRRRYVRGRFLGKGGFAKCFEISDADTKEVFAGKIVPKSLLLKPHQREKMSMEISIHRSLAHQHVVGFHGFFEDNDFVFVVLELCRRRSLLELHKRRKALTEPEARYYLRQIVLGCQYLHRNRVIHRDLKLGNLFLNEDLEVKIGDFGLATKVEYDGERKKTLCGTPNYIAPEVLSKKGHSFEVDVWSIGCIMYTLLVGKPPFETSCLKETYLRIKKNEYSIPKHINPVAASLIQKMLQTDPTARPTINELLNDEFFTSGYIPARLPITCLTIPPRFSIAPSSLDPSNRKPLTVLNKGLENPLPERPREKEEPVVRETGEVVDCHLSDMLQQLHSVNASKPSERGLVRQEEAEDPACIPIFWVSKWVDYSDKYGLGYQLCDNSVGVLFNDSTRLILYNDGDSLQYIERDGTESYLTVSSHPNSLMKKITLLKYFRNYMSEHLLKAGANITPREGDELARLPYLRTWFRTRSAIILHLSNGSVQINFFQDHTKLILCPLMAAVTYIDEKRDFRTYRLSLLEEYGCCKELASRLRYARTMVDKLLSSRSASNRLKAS

Compound: COc1cc2ncn(-c3cc(OCc4ccoc4)c(C(N)=O)s3)c2cc1OC
- IC50 [1]: 190 nM
- IC50 (HCT-116): 19000 nM

Compound: Cc1ccccc1COc1cc(-n2cnc3ccc(Cl)cc32)sc1C(N)=O
- IC50 [1]: 4 nM
- IC50 (HCT-116): 1690 nM

Compound: COc1cc2ncn(-c3cc(OCCc4ccccc4)c(C(N)=O)s3)c2cc1OC [GSK-204925A]
- IC50 (HCT-116): 24100 nM

Compound: COc1cc2ncn(-c3cc(OCc4cccc(C#N)c4)c(C(N)=O)s3)c2cc1OC
- IC50 [1]: 99 nM
- IC50 (HCT-116): > 30000 nM

Compound: NC(=O)c1sc(-n2cnc3ccccc32)cc1OCc1cccc(Cl)c1
- IC50 [1]: 22 nM

Compound: NC(=O)c1sc(-n2cnc3ccccc32)cc1OCc1ccccc1Br [GSK-1023156A]
- IC50 [1]: 11 nM

Compound: COc1cc2ncn(-c3cc(OCc4ccccc4C(F)(F)F)c(C(N)=O)s3)c2cc1OC [GW843682X]
- IC50 [1]: 2 nM
- IC50 (HN5): 678 nM
- IC50 (PC-3): 6820 nM
- Vd [2]: 1.5 L/kg
- clearance [3]: 47.4 mL/min/kg
- IC50 (RKO): 398 nM
- IC50 (NCI-N87): 601 nM
- IC50 (A549): 411 nM
- IC50 [4]: > 48000 nM
- IC50 (NCI-H460): 380 nM
- IC50 (MCF7): 558 nM
- IC50 [5]: > 15000 nM
- IC50 [6]: 92 nM
- IC50 [7]: > 15000 nM
- IC50 [8]: > 30000 nM
- IC50 (HCT-116): 699 nM
- bioavailability [9]: 14%
- AUC [10]: 489 ng·h/mL

Compound: COc1ccccc1COc1cc(-n2cnc3ccccc32)sc1C(N)=O
- IC50 [1]: 12 nM

Compound: NC(=O)c1sc(-n2cnc3ccccc32)cc1OCc1ccccc1
- IC50 [1]: 61 nM

Compound: COc1ccc2c(c1)ncn2-c1cc(OCc2ccccc2C(F)(F)F)c(C(N)=O)s1
- IC50 [1]: 8 nM
- IC50 (HCT-116): 2700 nM

Compound: COc1cc2ncn(-c3cc(OCc4ccccc4)c(C(N)=O)s3)c2cc1OC
- IC50 [1]: 12 nM
- IC50 (HCT-116): 1090 nM

Compound: NC(=O)c1sc(-n2cnc3ccccc32)cc1OCc1ccccc1Cl
- IC50 [1]: 12 nM

Compound: COc1cc2ncn(-c3cc(OCc4ccccc4C(F)(F)F)c(C(=O)N(C)C)s3)c2cc1OC [GSK-1030062A]
- IC50 [1]: > 1000 nM

Compound: COc1cc2ncn(-c3cc(OCc4ccccc4C(F)(F)F)c(C#N)s3)c2cc1OC
- IC50 [1]: 700 nM

Compound: COc1cc2ncn(-c3cc(OCc4ccccc4C#N)c(C(N)=O)s3)c2cc1OC
- IC50 [1]: 6 nM
- IC50 (HCT-116): 2630 nM

Compound: COc1cc2ncn(-c3cc(OCc4ccccc4OC(F)(F)F)c(C(N)=O)s3)c2cc1OC
- IC50 [1]: 5 nM
- IC50 (HCT-116): 1150 nM

Compound: COc1cc2ncn(-c3cc(OCc4ccccc4Cl)c(C(N)=O)s3)c2cc1OC [GW852849X]
- IC50 [1]: 2 nM
- IC50 (HCT-116): 999 nM

Compound: COc1ccccc1COc1cc(-n2cnc3cc(OC)c(OC)cc32)sc1C(N)=O
- IC50 [1]: 8 nM
- IC50 (HCT-116): 2110 nM

Compound: COc1cc2ncn(-c3cc(OCC4CCCC4)c(C(N)=O)s3)c2cc1OC
- IC50 [1]: 34 nM
- IC50 (HCT-116): 3380 nM

Compound: COc1ccc2ncn(-c3cc(OCc4ccccc4C(F)(F)F)c(C(N)=O)s3)c2c1
- IC50 [1]: 2 nM
- IC50 (HCT-116): 1230 nM

Compound: NC(=O)c1sc(-n2cnc3ccccc32)cc1OCc1ccc(Cl)cc1
- IC50 [1]: 100 nM

Compound: COc1cc2ncn(-c3cc(OCc4ccccc4C(F)(F)F)c(C(=O)O)s3)c2cc1OC
- IC50 (HCT-116): 7660 nM

Compound: COc1cccc(COc2cc(-n3cnc4ccccc43)sc2C(N)=O)c1 [GW804482X]
- IC50 [1]: 28 nM

Compound: Cc1ccccc1COc1cc(-n2cnc3cc(Cl)ccc32)sc1C(N)=O
- IC50 [1]: 21 nM
- IC50 (HCT-116): > 28000 nM

Compound: COc1cc2ncn(-c3cc(OCc4ccncc4)c(C(N)=O)s3)c2cc1OC
- IC50 [1]: 130 nM
- IC50 (HCT-116): 21000 nM

Compound: COc1cc2ncn(-c3cc(OCc4cccs4)c(C(N)=O)s3)c2cc1OC [GSK-312948A]
- IC50 [1]: 11 nM
- IC50 (HCT-116): 1540 nM

Compound: COc1cc2ncn(-c3cc(OCc4ccccc4Br)c(C(N)=O)s3)c2cc1OC
- IC50 [1]: 2 nM
- IC50 (HCT-116): 926 nM

Compound: COc1cc2ncn(-c3cc(OCc4ccccc4C(F)(F)F)c(-c4nnn[nH]4)s3)c2cc1OC
- IC50 (HCT-116): > 30000 nM

Compound: COc1ccc(COc2cc(-n3cnc4cc(OC)c(OC)cc43)sc2C(N)=O)cc1
- IC50 [1]: 13 nM
- IC50 (HCT-116): 12100 nM

Compound: COc1cc2ncn(-c3cc(OCc4ccccc4C(F)(F)F)c(C(N)=S)s3)c2cc1OC
- IC50 [1]: 6 nM
- IC50 (HCT-116): > 30000 nM

Compound: COc1cc2ncn(-c3cc(OCc4ccccc4C(F)(F)F)c(C(C)=O)s3)c2cc1OC [GSK-1030059A]
- IC50 [1]: 85 nM

Compound: COc1cc2ncn(-c3cc(OCc4ccco4)c(C(N)=O)s3)c2cc1OC
- IC50 [1]: 27 nM
- IC50 (HCT-116): > 25000 nM

Compound: Cc1cccc(COc2cc(-n3cnc4ccccc43)sc2C(N)=O)c1
- IC50 [1]: 12 nM

Compound: COc1cc2ncn(-c3cc(OCc4cccc(N)c4)c(C(N)=O)s3)c2cc1OC
- IC50 [1]: 21 nM
- IC50 (HCT-116): 2270 nM

Compound: CS(=O)(=O)c1ccc2c(c1)ncn2-c1cc(OCc2ccccc2C(F)(F)F)c(C(N)=O)s1
- IC50 [1]: 250 nM
- IC50 (HCT-116): > 30000 nM

Compound: NC(=O)c1sc(-n2cnc3ccc(C(F)(F)F)cc32)cc1OCc1ccccc1Br [GW853606X]
- IC50 [1]: 9 nM
- IC50 (HCT-116): 3590 nM

Compound: COc1cc2ncn(-c3cc(OCCCc4ccccc4)c(C(N)=O)s3)c2cc1OC
- IC50 (HCT-116): 7750 nM

Compound: Cc1ccc(COc2cc(-n3cnc4ccccc43)sc2C(N)=O)cc1
- IC50 [1]: 70 nM

Compound: COc1cc2ncn(-c3cc(OCc4ccccc4S(C)(=O)=O)c(C(N)=O)s3)c2cc1OC
- IC50 [1]: 31 nM
- IC50 (HCT-116): 5430 nM

Compound: COc1ccc(COc2cc(-n3cnc4ccccc43)sc2C(N)=O)cc1
- IC50 [1]: 35 nM

Compound: CS(=O)(=O)c1ccc2ncn(-c3cc(OCc4ccccc4C(F)(F)F)c(C(N)=O)s3)c2c1
- IC50 [1]: 12 nM
- IC50 (HCT-116): 2960 nM

Compound: Cc1ccccc1COc1cc(-n2cnc3ccccc32)sc1C(N)=O
- IC50 [1]: 12 nM

Compound: COc1cc2ncn(-c3cc(OCc4ccsc4)c(C(N)=O)s3)c2cc1OC
- IC50 [1]: 17 nM
- IC50 (HCT-116): 1520 nM

Compound: CNC(=O)c1sc(-n2cnc3cc(OC)c(OC)cc32)cc1OCc1ccccc1C(F)(F)F [GSK-1030061A]
- IC50 [1]: > 1000 nM

Compound: COc1cc2ncn(-c3cc(OCc4ccccc4C(C)=O)c(C(N)=O)s3)c2cc1OC
- IC50 [1]: 17 nM
- IC50 (HCT-116): 2640 nM

Compound: COc1cc2ncn(-c3cc(OCC4CCCCC4)c(C(N)=O)s3)c2cc1OC
- IC50 (HCT-116): 3090 nM

Compound: COc1cc2ncn(-c3cc(OCc4ccc(S(C)(=O)=O)cc4)c(C(N)=O)s3)c2cc1OC
- IC50 [1]: 75 nM
- IC50 (HCT-116): > 30000 nM

Compound: COc1cc2ncn(-c3cc(OCc4sccc4Cl)c(C(N)=O)s3)c2cc1OC
- IC50 [1]: 2 nM
- IC50 (HCT-116): 1480 nM

Compound: COc1cc2ncn(-c3cc(OCc4ccnc(Br)c4)c(C(N)=O)s3)c2cc1OC
- IC50 [1]: 14 nM
- IC50 (HCT-116): 1770 nM

Compound: COc1cc2ncn(-c3cc(OCc4cccc(N(C)C)c4)c(C(N)=O)s3)c2cc1OC
- IC50 [1]: 31 nM
- IC50 (HCT-116): 3470 nM

Compound: NC(=O)c1sc(-n2cnc3ccccc32)cc1OCc1ccccc1F
- IC50 [1]: 14 nM

Compound: NC(=O)c1sc(-n2cnc3cc(C(F)(F)F)ccc32)cc1OCc1ccccc1Br [GW853609X]
- IC50 [1]: 300 nM
- IC50 (HCT-116): > 30000 nM

Compound: COC(=O)c1sc(-n2cnc3cc(OC)c(OC)cc32)cc1OCc1ccccc1C(F)(F)F [GSK-1030058A]
- IC50 [1]: > 1000 nM
